In patent US20120136033A1, “Small Molecule Antagonists of Phosphatidylinositol-3,4,5-Triphosphate (PIP3) and Uses Thereof” (President and Fellows of Harvard College, priority 2009, published 2012):

Columns and labels:
[1] = system: SV40-transformed mouse adult lung fibroblasts; test: loss of viability, Akt1-expressing vs Akt1-3 triple knockout lung fibroblasts; type: cell-based; conditions: P<0.01
Source text: Shaughnessy J D (2008) Nature 454:172-3; Weinstein I G (2002) Science 297:63-4. Therefore, the possibility that PIT-1 may cause preferential cell death in the cells containing elevated PIP3 levels was examined. […] Li D M et al. (1998) Proc Natl Acad Sci USA 95:15406-11. […] This observation is consistent with the notion that PTEN-deficient cancer cells become overly dependent on PIP3 signaling and, therefore, are hypersensitive to disruption of this pathway compared to wild-type PTEN-expressing cells. Neshat M S et al. (2001) Proc Natl Acad Sci USA 98:10314-9.

[2] = solubility / precipitation; type: physicochemical
Source text: This method has been reported to be efficient for in vivo targeting of cancer cells by other poorly soluble anti-cancer drugs, such as m-porphyrin, tamoxifen, and taxol. Gao Z et al. (2003) J Drug Target 11:87-92; Torchilin V P et al. (2003) Proc Natl Acad Sci USA 100:6039-44.
The size of the DM-PIT-1-loaded micelles was about 15 nm with a narrow size distribution.

[3] = target: T1, PLC-δ PH domain (Homo sapiens, UniProt P51178); test: FP assay, PIP2 binding to PLC-δ PH domain; conditions: 15 nM TMR-PIP2, 100 nM PLC-δ PH domain, 0-200 μM
T1 construct: 100 nM PLC-δ PH domain
T1 sequence (P51178 21-130 limits assumed): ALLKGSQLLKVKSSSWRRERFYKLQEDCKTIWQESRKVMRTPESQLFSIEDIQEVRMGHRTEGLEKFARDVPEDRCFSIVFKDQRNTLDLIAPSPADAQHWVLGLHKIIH
Experimental: (§1) FIG. 5 is a graph depicting specificity and concentration-dependent competitive inhibition of PIP3-PH domain interaction by PIT-1 and PIT-2. 15 nM TMR-conjugated PIP2 were incubated with 100 nM PLC-δ PH domain in the presence or absence of the indicated concentrations of PITs (0-200 μM) for 30 min, followed by FP measurement.
(§2) In order to identify compounds that disrupt the interaction between PIP3 and PH domains, a high-throughput fluorescence polarization (FP)-binding assay was developed using recombinant 1-123 amino acid N-terminal fragment of human Akt1 (also referred to herein simply as Akt), encompassing the PH domain (PH123 protein), and fluorescent NBD-labeled PIP3 molecule. The amino acid sequence of human Akt1 is publicly available as, for example, GenBank Accession No. NP_001014432.1 (SEQ ID NO:1), and the corresponding DNA sequence is publicly available as, for example, GenBank Accession No. NM_001014432. Briefly, 5 μM recombinant GST fusion proteins containing 1-123 a.a. N-terminal fragment of human Akt1 (PH 123) or 100 nM 441-551 a.a. region of human PDK1 were incubated with 15 nM TMR-labeled PIP3, PIP2, or PIP5 in buffer containing 50 mM Tris-HCl (pH 7.5), 150 mM NaCl, and 5 mM b-ME for 15 min at room temperature in the dark. FP values were determined using Wallac Victor 3 plate reader. […]

[4] = target: T2, PDK1 PH domain (Homo sapiens, UniProt O15530); test: FP assay, PIP3 binding to PDK1 PH domain; conditions: 15 nM TMR-PIP3, 100 nM PDK1 PH domain, 0-200 μM
T2 construct: 100 nM 441-551 a.a. region of human PDK1; made in house; host or cells: E. coli BL21(DE3)
Experimental: as §1, with “FIG. 4” for “FIG. 5”, “depicting” for “depicting specificity and”, “TMR-conjugated PIP3” for “TMR-conjugated PIP2”, “nM PDK1” for “nM PLC-δ”
as §2

[5] = system: SUM159 cells; test: cell polarization in wounded SUM159 monolayers; type: cell-based, human; conditions: 100 μM, 2 hr
Experimental: In order to measure cell polarization, wounds were generated in SUM159 cell monolayers, followed by serum starvation and treatment with 100 μM PIT-1, PIT-2, PIT-1i-1, or PIT-1i-2 for 2 hr. Cells were stimulated for 15 min with 100 ng/ml PDGF, fixed and stained with TRITC-phalloidin for F-actin (red), acetylated tubulin antibody (green) for microtubule organization center (MTOC), and Hoechst for nuclei (blue). Cell polarization was evaluated by analysis of the relative location of the MTOC and nucleus. […] The number of polarized cells was counted in five random fields under fluorescent microscope.

[6] = target: T3, WAVE2 (Homo sapiens, UniProt Q9Y6W5); test: plasma membrane translocation assay, WAVE2-GFP; type: cell-based
T3 construct: expressed in transfected cells; host or cells: SUM159
Experimental: To begin characterizing cellular activity of PITs, a PH domain translocation assay was performed, measuring PIP3-induced association of GFP-fused PH domains with the plasma membrane. This method provides useful means for monitoring status of the PH domain/PIP3 binding in the intact cells. Varnai P et al. (1999) J Biol Chem 274:10983-9. Several PH-domain-containing proteins, which are known to bind PIP3 specifically and efficiently, were examined. […] Oikawa T et al. (2004) Nat Cell Biol 6:420-6.

T2 sequence (O15530 441-551): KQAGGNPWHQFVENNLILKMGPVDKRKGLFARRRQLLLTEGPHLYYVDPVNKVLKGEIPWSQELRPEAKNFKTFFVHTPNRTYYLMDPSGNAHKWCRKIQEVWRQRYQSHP
T3 sequence (Q9Y6W5 whole entry, species assumed): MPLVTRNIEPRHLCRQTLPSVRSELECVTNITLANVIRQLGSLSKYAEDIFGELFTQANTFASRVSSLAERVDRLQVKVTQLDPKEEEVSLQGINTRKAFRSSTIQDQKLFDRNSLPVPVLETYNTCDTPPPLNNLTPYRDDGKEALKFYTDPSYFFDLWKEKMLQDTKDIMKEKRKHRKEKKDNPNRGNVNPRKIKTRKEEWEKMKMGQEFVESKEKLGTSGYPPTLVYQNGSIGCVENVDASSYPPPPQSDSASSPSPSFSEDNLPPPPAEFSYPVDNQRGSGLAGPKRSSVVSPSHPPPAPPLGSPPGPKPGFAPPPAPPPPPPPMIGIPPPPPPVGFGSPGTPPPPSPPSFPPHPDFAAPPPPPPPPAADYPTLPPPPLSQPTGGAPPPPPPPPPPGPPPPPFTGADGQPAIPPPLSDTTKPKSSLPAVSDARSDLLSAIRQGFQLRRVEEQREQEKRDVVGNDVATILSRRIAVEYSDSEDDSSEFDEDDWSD

## O=C1NC(=S)S/C1=C\c1cc(O)c([N+](=O)[O-])cc1Cc1ccccc1 [PIT-2]
[1]
  loss of viability in Akt1-expressing fibroblasts compared to Akt1-3 triple knockout cells: more pronounced
[2]
  aqueous solubility: limited aqueous solubility
[3]
  inhibition of interaction between PIP2 and PH domain of PLC-δ: failed to inhibit
[4]
  inhibition of binding of PIP3 to the PH domain of PDK1: inhibited binding
[5]
  cell polarization and lamellipodia formation induced by PDGF, wound healing model: effective at preventing cell polarization
[6]
  plasma membrane translocation of WAVE2: suppressed the plasma membrane translocation

## O=C(NC(=S)Nc1cc([N+](=O)[O-])cc(Cl)c1O)c1ccccc1 [PIT-1]
[1]
  loss of viability in Akt1-expressing fibroblasts compared to Akt1-3 triple knockout cells: more pronounced
[2]
  aqueous solubility: limited aqueous solubility
[3]
  inhibition of interaction between PIP2 and PH domain of PLC-δ: failed to inhibit
[4]
  inhibition of binding of PIP3 to the PH domain of PDK1: inhibited binding
[5]
  cell polarization and lamellipodia formation induced by PDGF, wound healing model: effective at preventing cell polarization
[6]
  plasma membrane translocation of WAVE2: suppressed the plasma membrane translocation
